Results published in patent publication US12162894B2, “Structural analog of Cyclotheonellazole A, and synthetic method therefor and application method thereof” (The Second People's Hospital of Shenzhen (Shenzhen …, priority 2022, dated 2024).

Molecular target: T1, Neutrophil Elastase (NE) (Homo sapiens, UniProt P08246)
T1 construct: purchased Abcam ab118971
T1 sequence (P08246 30-267): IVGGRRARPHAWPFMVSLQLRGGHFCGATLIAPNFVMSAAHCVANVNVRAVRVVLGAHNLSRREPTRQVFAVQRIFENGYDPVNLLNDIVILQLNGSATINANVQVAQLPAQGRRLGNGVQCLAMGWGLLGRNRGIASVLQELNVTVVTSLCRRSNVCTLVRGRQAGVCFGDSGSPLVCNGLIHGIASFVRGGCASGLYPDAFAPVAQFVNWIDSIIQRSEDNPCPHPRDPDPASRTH
Assay: Inhibition of neutrophil elastase (NE), fluorescence kit (Abcam ab118971)
Format: biochemical
Conditions: 5 min pre-incubation at 37° C.; Ex/Em=400/505 nm; slope of fluorescence; read-out: IC50, enzyme activity of the NE
Experimental: An Inhabitation Effect of the TM to Neutrophil Elastase (NE)
• 1. Experimental materials include a NE protease detection kit (ab118971) of an Abcam company and TM. • 2. Experimental methods are as follows. In a black 96-well plate, a blank well group, a negative control well group and a sample well group are set, and a reaction system is 100 μL. The blank well group is added with 75 μL of buffer, the negative control well group is added with 50 μL of NE protease and 25 μL of buffer, the sample well group is added with 50 μL of NE protease and 25 μL of TM solution (respectively with concentrations of 0.00001 μM, 0.0001 μM, 0.001 μM, 0.003 μM, 0.01 μM 0.1 μM, 1 μM, and 10 μM), and the three groups are incubated at a temperature of 37° C. for 5 min. Each well is added with 25 μL of substrate, after mixing evenly, fluorescence value of each well is immediately detected at Ex/Em=400/505 nm, and is detected every 20 seconds, and a dynamic process within a range of 0-40 min is observed. Two different time points (T1 and T2) are selected within a linear range of the dynamic process to obtain fluorescence values (RFUT1 and RFUT2) corresponding to the time points, a slope of the fluorescence values is calculated, and the slope can be regarded as an enzyme activity of each well. […] A half inhibitory concentration (IC50) is calculated through the Origin 2021 software. • 3.

IC50: 1.27 nM
Compound: CCC[C@@H]1NC(=O)[C@@H](NC=O)CNC(=O)[C@H](CS(=O)(=O)O)NC(=O)/C=C/c2csc(n2)[C@H](Cc2ccc(O)cc2)NC(=O)C(=O)[C@H]([C@@H](C)CC)NC1=O [TM]
